Data published in US11591336B2 (Relay Therapeutics, Inc., priority 2017, dated 2023).
Counter-ions that a name gives are not always drawn.

Target: SHP2 (Homo sapiens (Human), UniProt Q06124)
Experiment: SHP2 Allosteric Inhibition Assay (DiFMUP prompt fluorescence)
Type: biochemical
Settings: 0.25 nM SHP2 activated with 0.5 μM peptide IRS1_pY1172(dPEG8)pY1222; substrate DiFMUP 100 μM; 25° C.

| IC50 | SMILES |
| --- | --- |
| < 1000 nM | C[C@@H]1OCC2(CCN(c3cnc4c(N5CCN(C(N)=O)c6ncccc65)n[nH]c4n3)CC2)[C@@H]1N [Compound 258, 1-{6-[(3S,4S)-4-amino-3-methyl-2-oxa-8-azaspiro[4.5]decan-8-yl]-1H-pyrazolo[3,4-b]pyrazin-3-yl}-1H,2H,3H,4H-pyrido[2,3-b]pyrazine-4-carboxamide hydrochloride] |
| < 1000 nM | CO/N=C/c1ccc2c(n1)[C@@H](C)CCN2c1n[nH]c2nc(N3CCC4(CC3)CO[C@@H](C)[C@H]4N)cnc12 [Compound 444, (3S,4S)-8-{3-[(4S)-6-[(1E)-(methoxyimino)methyl]-4-methyl-1,2,3,4-tetrahydro-1,5-naphthyridin-1-yl]-1H-pyrazolo[3,4-b]pyrazin-6-yl}-3-methyl-2-oxa-8-azaspiro[4.5]decan-4-amine hydrochloride] |
| 1000 to 10000 nM | NC[C@@H]1CCN(c2cnc3c(N4CCCc5ncccc54)n[nH]c3n2)[C@@H](c2ccccc2)C1 [Compound 168] |
| < 1000 nM | Cc1nc(-c2ccc3c(n2)CCCN3c2n[nH]c3nc(N4CCC5(CC4)CO[C@@H](C)[C@H]5N)cnc23)no1 [Compound 319, (3S,4S)-3-methyl-8-(3-[6-(5-methyl-1,2,4-oxadiazol-3-yl)-1,2,3,4-tetrahydro-1,5-naphthyridin-1-yl]-1H-pyrazolo[3,4-b]pyrazin-6-yl)-2-oxa-8-azaspiro[4.5]decan-4-amine; formic acid] |
| < 1000 nM | CC1(CN)CCN(c2cnc3c(N4CCCc5nc(C(N)=O)ccc54)n[nH]c3n2)CC1 [Compound 175, 5-(6-(4-(aminomethyl)-4-methylpiperidin-1-yl)-1H-pyrazolo[3,4-b]pyrazin-3-yl)-5,6,7,8-tetrahydro-1,5-naphthyridine-2-carboxamide] |
| < 1000 nM | C[C@@H]1OCC2(CCN(c3cnc4c(N5CCCc6nc(C7CCOC7)ccc65)n[nH]c4n3)CC2)[C@@H]1N (stereo partly drawn) [Compound 309, (3S,4S)-3-methyl-8-(3-(6-(tetrahydrofuran-3-yl)-3,4-dihydro-1,5-naphthyridin-1(2H)-yl)-1H-pyrazolo[3,4-b]pyrazin-6-yl)-2-oxa-8-azaspiro[4.5]decan-4-amine] |
| < 1000 nM | C[C@@H]1OCC2(CCN(c3cnc4c(N5CCCc6nc(O)ccc65)n[nH]c4n3)CC2)[C@@H]1N [Compound 378] |
| < 1000 nM | C[C@@H]1CCN(c2n[nH]c3nc(N4CCC(C)(CN)CC4)cnc23)c2ccc(-c3nccs3)nc21 (single isomer, unassigned) [Compound 196, hydrochloride] |
| ≥ 10000 nM | COC(=O)NCC1(C)CCN(c2cnc3c(N4CCCc5cc(C#N)ccc54)n[nH]c3n2)CC1 [Compound 174, methyl ((1-(3-(6-cyano-3,4-dihydroquinolin-1(2H)-yl)-1H-pyrazolo[3,4-b]pyrazin-6-yl)-4-methylpiperidin-4-yl)methyl)carbamate] |
| < 1000 nM | C[C@@H]1OCC2(CCN(c3cnc4c(N5CC[C@H](C)c6nc(-c7ccn[nH]7)ccc65)n[nH]c4n3)CC2)[C@@H]1N [Compound 430, (3S,4S)-3-methyl-8-{3-[(4S)-4-methyl-6-(1H-pyrazol-5-yl)-1,2,3,4-tetrahydro-1,5-naphthyridin-1-yl]-1H-pyrazolo[3,4-b]pyrazin-6-yl}-2-oxa-8-azaspiro[4.5]decan-4-amine] |
| < 1000 nM | CCc1nc(-c2ccc3c(n2)CCCN3c2n[nH]c3nc(N4CCC5(CC4)CO[C@@H](C)[C@H]5N)cnc23)no1 [Compound 320, (3S,4S)-8-{3-[6-(5-ethyl-1,2,4-oxadiazol-3-yl)-1,2,3,4-tetrahydro-1,5-naphthyridin-1-yl]-1H-pyrazolo[3,4-b]pyrazin-6-yl}-3-methyl-2-oxa-8-azaspiro[4.5]decan-4-amine; formic acid] |
| < 1000 nM | C[C@H]1c2ccccc2CN1c1n[nH]c2nc(N3CCC(C)(CN)CC3)cnc12 [Compound 170] |
| < 1000 nM | CC(=O)NCc1ccc2c(n1)CCCN2c1n[nH]c2nc(N3CCC4(CC3)CO[C@@H](C)[C@H]4N)cnc12 [Compound 306, N-[(5-{6-[(3S,4S)-4-amino-3-methyl-2-oxa-8-azaspiro[4.5]decan-8-yl]-1H-pyrazolo[3,4-b]pyrazin-3-yl}-5,6,7,8-tetrahydro-1,5-naphthyridin-2-yl)methyl]acetamide dihydrochloride] |
| < 1000 nM | C[C@@H]1OCC2(CCN(c3cnc4c(N5CCCc6c5ccnc6N5CCOC5=O)n[nH]c4n3)CC2)[C@@H]1N [Compound 225] |
| 1000 to 10000 nM | CO[C@H]1C[C@H](N2CCN(c3n[nH]c4nc(N5CCC6(CC5)CO[C@@H](C)[C@H]6N)cnc34)c3ccc(C#N)cc32)C1 [compound 472] |
| < 1000 nM | C=C(C)c1cccc2c1CCCN2c1n[nH]c2nc(N3CCC4(CC3)CO[C@@H](C)[C@H]4N)cnc12 [Compound 462] |
| < 1000 nM | CC1CCN(c2n[nH]c3nc(N4CCC(C)(CN)CC4)cnc23)c2ccccc21 (centres unmarked) [Compound 48] |
| < 1000 nM | C[C@@H]1OCC2(CCN(c3cnc4c(N5CCCc6c5ccnc6C5CC5)n[nH]c4n3)CC2)[C@@H]1N [Compound 232] |
| 1000 to 10000 nM | CC1(N)CCN(c2cnc3c(NCc4ccccc4)n[nH]c3n2)CC1 [Compound 473, 6-(4-amino-4-methyl-1-piperidyl)-N-benzyl-1H-pyrazolo[3,4-b]pyrazin-3-amine] |
| < 1000 nM | N[C@@H]1COCC12CCN(c1cnc3c(N4CCCc5ncccc54)n[nH]c3n1)CC2 [Compound 214] |
| < 1000 nM | COCCn1cc(-c2ccc3c(n2)CCCN3c2n[nH]c3nc(N4CCC5(CC4)CO[C@@H](C)[C@H]5N)cnc23)cn1 [Compound 333, (3S,4S)-8-(3-{6-[1-(2-methoxyethyl)-1H-pyrazol-4-yl]-1,2,3,4-tetrahydro-1,5-naphthyridin-1-yl}-1H-pyrazolo[3,4-b]pyrazin-6-yl)-3-methyl-2-oxa-8-azaspiro[4.5]decan-4-amine] |
| < 1000 nM | C[C@@H]1CCN(c2n[nH]c3nc(N4CCC5(CC4)CO[C@@H](C)[C@H]5N)cnc23)c2ccc(-c3ncon3)nc21 (single isomer, unassigned) [Compound 371] |
| < 1000 nM | C#Cc1ccc2c(n1)CCCN2c1n[nH]c2nc(N3CCC4(CC3)CO[C@@H](C)[C@H]4N)cnc12 [Compound 410] |
| < 1000 nM | C[C@@H]1OCC2(CCN(c3cnc4c(N5CCN([C@H]6C[C@H](O)C6)c6cc(C#N)ccc65)n[nH]c4n3)CC2)[C@@H]1N [Compound 411] |
| 1000 to 10000 nM | N[C@@H]1CCC[C@@]12CCN(c1cnc3c(N4CCCc5ncccc54)n[nH]c3n1)C2 (relative stereo) [Compound 206, rel-(5S,6R)-2-(3-(3,4-dihydro-1,5-naphthyridin-1(2H)-yl)-1H-pyrazolo[3,4-b]pyrazin-6-yl)-2-azaspiro[4.4]nonan-6-amine] |
| ≥ 10000 nM | CCC1(C)CCN(c2cnc3c(N4CCCc5ncccc54)n[nH]c3n2)CC1 [Compound 153] |
| < 1000 nM | CN(C)C(=O)c1cccc2c1CCCN2c1n[nH]c2nc(N3CCC(C)(CN)CC3)cnc12 [Compound 80, 1-(6-(4-(Aminomethyl)-4-methylpiperidin-1-yl)-1H-pyrazolo[3,4-b]pyrazin-3-yl)-N,N-dimethyl-1,2,3,4-tetrahydroquinoline-5-carboxamide] |
| < 1000 nM | Cc1csc(-c2ccc3c(n2)CCCN3c2n[nH]c3nc(N4CCC5(CC4)CO[C@@H](C)[C@H]5N)cnc23)n1 [Compound 361] |
| < 1000 nM | Cc1ccc2c(c1)CCCN2c1n[nH]c2nc(N3CCC(C)(CN)CC3)cnc12 [Compound 45] |
